From patent publication US11413278B2, “Compounds and methods for promoting stress resistance” (priority 2015, dated 2022)
Where two headings read alike, the source gives them in different places.

Assays:
[1] = system: LC3A/B puncta; assay: Autophagy induction analysis (LC3A/B puncta immuno-staining); type: cell-based, human; settings: for Exp. 2, normalized change of nuclei numbers (Less cells): 20X objective, lysosomal LAMP co-staining
Method: Immuno-staining of LC3A/B was performed, following a standard protocol. Briefly, WI-38 cells were treated with small molecules for 24 hrs, and then processed and incubated with primary antibody (Cell Signaling, rabbit anti-LC3A/B, 1:100) overnight at 4° C. Next day, samples were processed and incubated with fluorophore-conjugated secondary antibody and further incubated with DAPI dye. Images were collected on the INCell Analyzer 2000 (Experiment 1: 10× objective; Experiment 2: 20× objective) and analyzed with the Developer Toolbox. For Experiment 2, lysosomal-associated membrane protein 2 (LAMP2) was also counter-stained to identify the LC3A/B puncta that colocalize with lysosome and the data were analyzed by the MetaXpress software (Molecular Devices, version 5.1). The intensity of total (Exp. 1) or LAMP2-colocalized LC3A/B puncta (Exp. 2) was normalized the total numbers nuclei in the fields.
These assays were performed, following the same procedures to analyze DNA-damage markers. WI-38 cells were incubated with small molecules for 24 hrs, and then processed and incubated with primary antibody (rabbit anti-LC3A/B, 1:100) overnight at 4 C. The next day, samples were processed and incubated with fluorophore-conjugated secondary antibody and further incubated with DAPI dye. Images were collected on an INCell Analyzer 2000 and analyzed with the Developer software. Total LC3A/B puncta intensity was normalized the total numbers of DAPI-positive nuclei.

[2] = system: mTOR; assay: mTOR inhibition (RPS6 phosphorylation status), In-Cell Western; type: cell-based, human
Method: In-Cell Western assays were performed, following a standard immuno-staining protocol. Briefly, WI-38 cells were treated with small molecules for 24 hrs, and then processed and incubated with primary antibody cocktail (Cell Signaling, mouse anti-RPS, 1:25; rabbit-anti-pRPS6-(Ser-235/236), 1:100) overnight at 4° C. Next day, samples were processed and incubated with fluorophore-conjugated secondary antibodies (Cell Signaling, DyLight 680-goat anti-mouse, 1:500; DyLight 800-goat anti-rabbit, 1:1,000). Images were collected on an Odyssey Imager (LI-COR) and analyzed with the Image Studio Lite software (version 5.0.21).
Mammalian target of rapamycin (mTOR) is a crucial regulator of cell growth and metabolism and has been implicated in aging and many diseases, including cancer, diabetes and neurological diseases (Dazert and Hall, 2011; Zoncu et al., 2011). […] In addition, the anti-diabetes drug metformin (Kalender et al., 2010), as well as other AMPK activators such as 2-deoxy-D-glucose (Inoki et al., 2003) and AICAR (Shaw et al., 2004), could inhibit mTORC1. Applicants examined the effects of our molecules (at three doses, 5 μM, 10 μM and 20 μM) on the phosphorylation status of ribosomal protein S6 (RPS6), a readout of mTOR activity, to ask whether they could inhibit mTOR.
In-Cell Western assays were performed, following the same procedures to analyze DNA-damage markers. WI-38 cells were incubated with small molecules for 24 hrs, and then processed and incubated with primary antibody cocktail (mouse anti-RPS, 1:25; rabbit-anti-pRPS6, 1:100) overnight at 4° C. Next day, samples were processed and incubated with fluorophore-conjugated secondary antibodies (goat anti-mouse, 1:500; goat anti-rabbit, 1:1,000) in antibody dilution buffer. Images were collected on an Odyssey Imager (LI-COR) and analyzed with the Image Studio Lite software.

[3] = Summary score for characterization of 38 core set hits; settings: for D = Triple resistant: 2-point score, multiplex resistance (cadmium, MMS, H2O2); for C = H2O2- & Cd-resistant: score, resistance to both H2O2 and cadmium
Method: 38 “core set” small molecules are listed and are assigned a score, based on the result for each individual characterization. From our small molecule screen for H2O2-resistance, we isolated 61 top hits. […] Specifically, a 2-point score was assigned to the most well-known and prominent longevity-related phenotypes, such as multiplex resistance, activation of FOXO3 and/or NRF2, and down-regulation of mTOR. Small molecules were also analyzed for their ability to extend C. elegans' lifespan in 4 to 6 independent trials, and the lifespan score scale is from 0 to 2: 0 for no obvious effects, 1 for lifespan extension observed in 2 trials, 2 for observed in more than 2 trials. Certain molecules appeared to have DNA-damaging effects and/or potential cell-toxicity in cultured human cells, and they receive a negative point.

[4] = system: C. elegans; type: in vivo, Caenorhabditis elegans
Method: The worms were treated with the small molecules in liquid, with H2O2 (500 μM final concentration) added on day 4 of adulthood, and scored for viability everyday
FUdR was used to block progeny production. The molecules were analyzed in 96-well plates, with 4 wells for each small molecule. Multiple control wells with DMSO (0.2% final concentration) were included. […] Day 1 adults were transferred onto mini-plates, seeded with OP50 bacteria (UV-irradiated, kanamycin-treated) and supplemented with small molecules (˜60 μM final concentration, 0.2% DMSO). Worms were scored every other day. Cumulative survival was analyzed using the STATA software (log-rank test). […] The worms were treated with the small molecules in liquid, with H2O2 (500 μM final concentration) added on day 4 of adulthood, and scored for viability every day.

[5] = Exp. 1, 10 μM, 10X objective, WI-38 cells

Structure (SMILES) | Assay 15: Potential autophagy induction by LC3A/B puncta assays ([1]; 10 uM & 20 uM, YES/NO) | Exp. 1, induction of LC3A/B puncta (Up), total intensity normalized by total number of nuclei in the fields [1, 5] | Exp. 1, normalized change of nuclei numbers (Less cells) [1, 5] | Exp. 2, normalized change of nuclei numbers (Less cells) ([1]; Exp. 2, 10 μM, WI-38 cells) | Exp. 2, normalized change of nuclei numbers (Less cells) ([1]; Exp. 2, 20 μM, WI-38 cells) | H = Potential Autophagy Induction ([1]; score) | H = Potential Autophagy Induction ([1]; summary score) | G = mTOR down-regulation ([2]; 2-point score) | G = mTOR down-regulation ([2]; summary score) | D = Triple resistant [3] | S = Sum of Negative scores ([3]; human) | C = H2O2- & Cd-resistant [3] | L = H2O2-resistance in worms ([4]; in vivo) | N = H2O2-resistance in woms ([4]; in vivo) | H2O2-resistance assay, 1st experiment ([4]; in vivo) | S = Sum of Negative scores ([3]; sum of columns Q and R) | N = H2O2-resistance in woms ([4]; score) | L = H2O2-resistance in worms ([4]; summary score) | mTOR inhibition (p-RPS6/RPS6), qualitative [2] | mTOR down-regulation by p-RPS6 assays ([2]; Assay 14(q), at 5 uM, 10 uM & 20 uM)
O=C(Nc1ccc(Cl)c(Cl)c1)c1ccc([N+](=O)[O-])o1 [Gr-1G] | YES | p < 0.001; Up, 2006%, | Less cells, 41%, | Less cells, 47%, | Less cells, 67%, | 1 | 1 | 0 | 0 | 0 | 1 | 1 | 0 | 0 | – | – | – | – | – | –
O=[N+]([O-])c1ccccc1S(=O)(=O)Nc1cccc2cccnc12 [Gr-3A] | – | – | – | – | – | 0 | 0 | 0 | 0 | 0 | 1 | 1 | 0 | 0 | – | – | – | – | – | –
Cc1ccc(S(=O)(=O)Nc2cccc3cccnc23)cc1 [Gr-3B] | – | – | – | – | – | 0 | 0 | 0 | 0 | 0 | 0 | 0 | 0 | 0 | YES; | – | – | – | – | –
Nc1ccccc1S(=O)(=O)Nc1cccc2cccnc12 [Gr-3C] | – | – | – | – | – | 0 | 0 | 0 | 0 | 0 | 2 | 0 | 0 | 0 | – | – | – | – | – | –
COc1ccc(C(=O)/C=C/c2ccc(F)cc2)c(OC)c1 [Gr-4A] | – | – | – | – | – | 0 | 0 | 0 | 0 | 0 | – | 1 | – | – | – | 0 | 0 | 0 | – | –
Oc1ccccc1-c1noc(-c2ccccc2O)n1 [O27] | – | – | – | – | – | 0 | 0 | 2 | 2 | 0 | 2 | 1 | – | – | – | – | – | – | consistently reduced the ratios | YES
